According to patent US12202844B2, “MAP4K1 inhibitors” (Blueprint Medicines Corporation, priority 2021, dated 2025):

Biological target: T1, MAP4K1 (HPK1) (Homo sapiens, UniProt Q92918)
T1 construct: purchased Invitrogen
Test: Inhibition of MAP4K1 biochemical enzymatic activity (EZReader 2 electrophoretic mobility shift)
Settings: HPK1 (Invitrogen), S6K2tide 1.5 μM, 120 min; ATP 26 μM or 1000 μM (not given)
Source text: MAP4K1 (HPK1) and relevant off-target enzymatic activity was monitored using the Perkin Elmer electrophoretic mobility shift technology platform—the EZReader 2. […] Within the linear, steady-state phase of the kinase enzymatic reaction, the mixed pool of phosphorylated (product) and non-phosphorylated (substrate) peptides was passed through the microfluidic system of the PerkinElmer EZ Reader 2, under an applied electric potential difference. The presence of the phosphate group on the product peptide provided a difference in mass and charge between that of the substrate peptide, resulting in a separation of the substrate and product pools in the sample (Perrin et al. 2010). As the product and substrate peptide mixture passes the lasers within the instrument, these pools are detected (λex=488 nm, λem=568 nm) and resolved as separate peaks. The ratio between these peaks reflects the activity of the compound at that concentration, in that well, under those conditions.
Inhibitors were dissolved in 100% DMSO at a stock concentration of 10 mM. A 100×, 10-point, 4-fold serial dilution of each inhibitor was created in 100% DMSO either manually or on a Hamilton STAR liquid handler, starting at a relevant concentration, usually 1 mM. A volume of 0.130 μL of each concentration was transferred to the relevant wells of a 384-well plate (Greiner 781 201) in duplicate using a TTPLabtech Mosquito nano-litre dispenser. Using a Multidrop Combi, the remaining constituents of the kinase reaction were added to the 130 nL of dosed compound as follows (see table below for final reaction details):
Enzyme activity assays at the ^APPKM for ATP or 1 mM ATP: In each well of a 384-well plate, 0.1-15 nM of untreated enzyme was incubated in a total of 13 μL of buffer (100 mM HEPES pH 7.5, 0.015% Brij 35, 10 mM MgCl2, 1 mM DTT) with 1.5 μM fluorescent peptid and 20-1000 μM ATP, at 25° C., for 60-180 minutes in the presence or absence of a dosed concentration series of compound (1% DMSO final concentration). The kinase reactions were stopped by the addition of 70 μl of Stop buffer (100 mM HEPES pH 7.5, 0.015% Brij 35, 35 mM EDTA and 0.2% of Coating Reagent 3 (Caliper Lifesciences)). The plates were read on a Caliper EZReader 2 as described above.

T1 sequence (Q92918 whole entry): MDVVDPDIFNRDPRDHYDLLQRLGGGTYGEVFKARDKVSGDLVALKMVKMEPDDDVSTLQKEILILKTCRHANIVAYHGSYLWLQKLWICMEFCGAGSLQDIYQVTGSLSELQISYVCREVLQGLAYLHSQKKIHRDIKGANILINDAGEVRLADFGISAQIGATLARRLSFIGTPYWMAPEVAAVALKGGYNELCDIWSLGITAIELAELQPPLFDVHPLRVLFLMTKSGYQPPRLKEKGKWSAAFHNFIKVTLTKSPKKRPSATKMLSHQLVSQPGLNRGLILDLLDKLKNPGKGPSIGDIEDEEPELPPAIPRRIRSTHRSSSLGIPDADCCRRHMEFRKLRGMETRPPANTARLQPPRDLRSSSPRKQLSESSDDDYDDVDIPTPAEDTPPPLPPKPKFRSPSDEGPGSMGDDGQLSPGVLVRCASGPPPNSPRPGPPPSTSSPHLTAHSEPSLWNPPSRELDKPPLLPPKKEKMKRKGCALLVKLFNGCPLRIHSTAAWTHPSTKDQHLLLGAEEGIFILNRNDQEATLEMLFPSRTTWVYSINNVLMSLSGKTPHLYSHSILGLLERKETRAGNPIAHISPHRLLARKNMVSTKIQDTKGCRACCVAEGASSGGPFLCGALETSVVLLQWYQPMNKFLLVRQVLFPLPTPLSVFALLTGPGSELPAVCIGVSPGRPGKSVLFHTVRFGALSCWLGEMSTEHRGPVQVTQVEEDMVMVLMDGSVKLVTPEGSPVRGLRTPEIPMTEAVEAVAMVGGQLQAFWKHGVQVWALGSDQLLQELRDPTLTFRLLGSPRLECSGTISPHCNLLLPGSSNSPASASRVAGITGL

IC50 [nM]	SMILES
0.56	C[C@@H]1c2nc(Nc3cc4c(C(C)(C)N)cnc(OCC5CS(=O)(=O)C5)c4cn3)ccc2C(=O)OC1(C)C [Compound 12]
0.2	C[C@@H]1[C@@H](Oc2ncc(C(C)(C)N)c3cc(Nc4ccc5c(n4)[C@@H](C)[C@H](C)OC5=O)ncc23)C[C@H]1S(C)(=O)=O (single isomer, unassigned) [Compound 31]
0.52	COC[C@@](C)(N)c1cnc(O[C@H]2C[C@H](CS(C)(=O)=O)C2)c2cnc(Nc3ccc4c(n3)[C@@H](C)[C@H](C)OC4=O)cc12 [Compound 120]
0.56	CC[C@@](C)(N)c1cnc(O[C@H](C)CCS(C)(=O)=O)c2cnc(Nc3ccc4c(n3)C(C)(C)COC4=O)cc12 [Compound 50]
0.53	COC[C@@](C)(N)c1cnc(OCCCS(C)(=O)=O)c2cnc(Nc3ccc4c(n3)[C@@H](C)[C@H](C)OC4=O)cc12 [Compound 57]
0.44	C[C@@H]1c2nc(Nc3cc4c(C(C)(C)N)cnc(OC[C@H]5CCS(=O)(=O)C5)c4cn3)ccc2C(=O)OC1(C)C (single isomer, unassigned) [Compound 37]
0.12	CC[C@@](C)(N)c1cnc(OCCCS(C)(=O)=O)c2cnc(Nc3ccc4c(n3)C3(CC3)[C@H](C)OC4=O)cc12 (single isomer, unassigned) [Compound 43]
0.94	CC[C@@](C)(N)c1cnc(O[C@@H](C)CC(C)(C)S(C)(=O)=O)c2cnc(Nc3ccc4c(n3)C(C)(C)[C@H](C)OC4=O)cc12 (single isomer, unassigned) [Compound 192]
0.26	CC[C@@](C)(N)c1cnc(O[C@@H](C)CCS(=O)(=O)C2CC2)c2cnc(Nc3ccc4c(n3)[C@@H](C)[C@H](C)OC4=O)cc12 (single isomer, unassigned) [Compound 107]
0.59	COC[C@@](C)(N)c1cnc(O[C@H]2C[C@@H](CS(C)(=O)=O)C2)c2cnc(Nc3ccc4c(n3)[C@@H](C)[C@H](C)OC4=O)cc12 [Compound 121]
0.28	C[C@@H]1[C@H](S(C)(=O)=O)C[C@H]1Oc1ncc(C(C)(C)N)c2cc(Nc3ccc4c(n3)[C@@H](C)C(C)(C)OC4=O)ncc12 (single isomer, unassigned) [Compound 71]
0.1	CC[C@@](C)(N)c1cnc(O[C@H]2C[C@H](CS(C)(=O)=O)C2)c2cnc(Nc3ccc4c(n3)[C@@H](C)[C@H](C)OC4=O)cc12 [Compound 72]
1.05	CC[C@@](C)(N)c1cnc(O[C@H](C)CC(C)(C)[S@@](C)(=N)=O)c2cnc(Nc3ccc4c(n3)C(C)(C)[C@@H](C)OC4=O)cc12 (single isomer, unassigned) [Compound 189]
0.49	COC[C@@](C)(N)c1cnc(OCCCS(C)(=O)=O)c2cnc(Nc3ccc4c(n3)[C@@H](C)C(C)(C)OC4=O)cc12 (stereo in doubt) [Compound 179]
0.9	C[C@@H]1OC(=O)c2ccc(Nc3cc4c(C(C)(C)N)cnc(O[C@@H](C)CCS(C)(=O)=O)c4cn3)nc2[C@H]1C (single isomer, unassigned) [Compound 19]
0.23	C[C@@H]1[C@H](S(C)(=O)=O)C[C@H]1Oc1ncc(C(C)(C)N)c2cc(Nc3ccc4c(n3)[C@@H](C)C(C)(C)OC4=O)ncc12 (single isomer, unassigned) [Compound 70]
0.3	CC[C@@](C)(N)c1cnc(OCCCS(C)(=O)=O)c2cnc(Nc3ccc4c(n3)C(C)(C)COC4=O)cc12 [Compound 22]
0.55	C[C@H](C[C@@H](C)S(C)(=O)=O)Oc1ncc(C(C)(C)N)c2cc(Nc3ccc4c(n3)C3(CC3)C(C)(C)OC4=O)ncc12 [Compound 103]
0.24	CC[C@@](C)(N)c1cnc(O[C@H]2C[C@@H](CS(C)(=O)=O)C2)c2cnc(Nc3ccc4c(n3)[C@@H](C)[C@H](C)OC4=O)cc12 [Compound 73]

IC50 [nM]	SMILES
0.71	C[C@H](CCS(C)(=O)=O)Oc1ccc(C(C)(C)N)c2cc(Nc3ccc4c(n3)[C@@H](C)C(C)(C)OC4=O)ncc12 (single isomer, unassigned) [Compound 46]
0.25	CC[C@@](C)(N)c1cnc(O[C@H]2C[C@@H](S(C)(=O)=O)C2)c2cnc(Nc3ccc4c(n3)[C@@H](C)[C@@H](C)OC4=O)cc12 (single isomer, unassigned) [Compound 149]
0.86	C[C@H](C[C@H]1CCCS1(=O)=O)Oc1ncc(C(C)(C)N)c2cc(Nc3ccc4c(n3)[C@@H](C)C(C)(C)OC4=O)ncc12 (single isomer, unassigned) [Compound 158]
0.45	COC[C@@](C)(N)c1cnc(OCCCS(C)(=O)=O)c2cnc(Nc3ccc4c(n3)[C@@H](C)C(C)(C)OC4=O)cc12 [Compound 135]
0.18	CC[C@@](C)(N)c1cnc(O[C@H]2C[C@@H](S(C)(=O)=O)C2)c2cnc(Nc3ccc4c(n3)CC(C)(C)OC4=O)cc12 [Compound 32]
0.19	CC[C@@](C)(N)c1cnc(O[C@H](C)CC[S@+](C)[O-])c2cnc(Nc3ccc4c(n3)[C@@H](C)[C@H](C)OC4=O)cc12 (single isomer, unassigned) [Compound 167]
0.77	CC[C@@](C)(N)c1cnc(O[C@H](C)CCS(C)(=O)=O)c2cnc(Nc3ccc4c(n3)C(C)(C)[C@H](C)OC4=O)cc12 (single isomer, unassigned) [Compound 96]
0.83	CC[C@@](C)(N)c1cnc(O[C@@H](C)CC(C)(C)S(C)(=O)=O)c2cnc(Nc3ccc4c(n3)[C@@H](C)[C@H](C)OC4=O)cc12 (single isomer, unassigned) [Compound 184]
0.22	C[C@@H]1c2nc(Nc3cc4c(C(C)(C)N)cnc(O[C@H]5C[C@H](S(=O)(=O)N(C)C)C5)c4cn3)ccc2C(=O)OC1(C)C [Compound 119]
3.03	CC[C@@](C)(N)c1cnc(O[C@H](C)C[C@@H](C)[S@@](C)(=N)=O)c2cnc(Nc3ccc4c(n3)C3(CC3)[C@@H](C)OC4=O)cc12 (single isomer, unassigned) [Compound 180]
0.14	CC[C@@](C)(N)c1cnc(O[C@H]2C[C@H](CS(C)(=O)=O)C2)c2cnc(Nc3ccc4c(n3)[C@@H](C)C(C)(C)OC4=O)cc12 [Compound 113]
0.68	C[C@@H]1OC(=O)c2ccc(Nc3cc4c(C(C)(C)N)cnc(O[C@@H]5CC[C@H](S(C)(=O)=O)C5)c4cn3)nc2[C@H]1C (single isomer, unassigned) [Compound 41]
0.22	COC[C@@](C)(N)c1cnc(O[C@H]2C[C@@H](S(C)(=O)=O)C2)c2cnc(Nc3ccc4c(n3)C3(CC3)[C@H](C)OC4=O)cc12 (single isomer, unassigned) [Compound 163]
0.19	CC[C@@](C)(N)c1cnc(OCCCS(C)(=O)=O)c2cnc(Nc3ccc4c(n3)C3(CC3)C(C)(C)OC4=O)cc12 [Compound 44]
0.86	C[C@@H]1OC(=O)c2ccc(Nc3cc4c(C(C)(C)N)cnc(O[C@@H]5CC[C@H](S(C)(=O)=O)C5)c4cn3)nc2[C@H]1C (single isomer, unassigned) [Compound 40]
0.22	CC[C@@](C)(N)c1cnc(O[C@H](C)C[C@@H](C)S(C)(=O)=O)c2cnc(Nc3ccc4c(n3)C(C)(C)[C@H](C)OC4=O)cc12 (single isomer, unassigned) [Compound 130]
0.15	C[C@@H]1OC(=O)c2ccc(Nc3cc4c(C(C)(C)N)cnc(O[C@H]5C[C@@H](S(=O)(=O)C6CC6)C5)c4cn3)nc2[C@H]1C [Compound 61]
0.21	CC[C@@](C)(N)c1cnc(OCCCS(C)(=O)=O)c2cnc(Nc3ccc4c(n3)C(C)(C)[C@H](C)OC4=O)cc12 (single isomer, unassigned) [Compound 56]
